Measurements taken from patent publication US20260250325A1, “Antiviral Polypeptide Membrane Fusion Inhibitor, and Preparation Method and Application Thereof” (priority 2025, published 2026).
Where a SMILES comes first, the peptide text is derived from it. The star is where a group is joined. Succinyl(4-O-cholesteryl) = CC(C)CCC[C@@H](C)[C@H]1CC[C@H]2[C@@H]3CC=C4C[C@@H](OC(=O)CCC(=O)*)CC[C@]4(C)[C@H]3CC[C@]12C

Tested on: RSV A2 virus strain
Test: Mouse RSV A2 challenge protection, lung viral titer by plaque method
Assay type: in vivo, BALB/c mice
Settings: for Mean (PFU/g lung): BALB/c mice, tracheal nebulization 1 mg/kg QD for 5 days, lung collected 2 h after final administration on Day 4; for effect on viral titer in lung tissue (in words): mice, tracheal nebulization once daily for 5 days
Experimental: Female BALB/c mice were from Shanghai Yishang Biotechnology Co., Ltd. HEp- 2 were from the ATCC, with a catalog number CCL-23. The cells were cultured in a DMEM medium solution in which 10% (v/v) fetal bovine serum and 1% penicillin and streptomycin were added. The RSV A2 virus strain was from the ATCC, with a catalog number VR-1540.
Eight-week-old female BALB/c mice were grouped based on body weight (n=6). All animals were intranasally challenged with RSV on Day 0 at a challenge dosage of 1×10^6 pfu (20 μL) per animal. Administration began 1 h after Day 0 challenge; the polypeptide sample, positive control, and solvent control were administered via tracheal nebulization once daily for 5 consecutive days (see Table 3 below for administration dosage and administration frequency). Lung tissue was collected from all animals 2 h after the final administration on Day 4; left lung tissue was rapidly frozen in a virus protection solution with a 10-fold volume and stored below −70° C.; and a viral titer was detected by using a plaque method.
For analysis, the lung RSV A2 virus was determined by performing a tissue homogenate viral load plaque method. In short, on the day prior to sample detection, the HEp-2 cells were inoculated into a 12-well plate (spreading density being 0.3×10^6 cells/mL, with 1000 μL of cell suspension per well) according to a standard HEp-2 cell culture operation procedure. On the day of incubation, the supernatant was taken from the tissue sample that was homogenized using a tissue homogenizer (maintaining a low-temperature environment), and the supernatant was taken after centrifugation. The tissue homogenate sample was diluted with serum-free DMEM, and inoculated into a 12-well plate at a final volume of 400 μL. After 2 h of incubation, the homogenate supernatant was discarded, and 1.5 mL of a covering layer (cell culture medium containing 1% soft agar) was added to each well and cultured in the incubator for approximately 72 h. The covering layer was discarded, the cells were fixed, blocking was performed by using a blocking solution, dyeing was performed with HRP-RSVG, development and air drying were terminated with pure water. Colored spots on the well plate were counted by using a fluorescent (enzyme-linked) immunoassay spot analyzer, and the viral titer was expressed as a plaque-forming unit per gram of tissue (PFU/g). The viral titer was calculated as an arithmetic mean±standard error of all animals in a group.
One hour after RSV A2 challenge in mice, compounds 13, 14, 17, 19, 20, 21, 26, 27, 28, and 40 were administered via tracheal nebulization once daily for 5 consecutive days; and 2 h after the final administration, lung tissue was collected from all groups for viral plaque detection, and results were shown in Table 3.

Compound | Mean (PFU/g lung) | effect on viral titer in lung tissue (in words)
Ac-FDEEISQVNEKINQSLAFIRKSDELLHNVNAGKSTTEAAAKK(Succinyl(4-O-cholesteryl))-NH2 [Compound 26] | 5015 | significantly reduce the viral titer in lung tissue
CC[C@H](C)[C@H](NC(=O)[C@H](CCCCN)NC(=O)[C@H](CCCCN)NC(=O)[C@H](CC(C)C)NC(=O)[C@H](CO)NC(=O)[C@H](CCC(=O)O)NC(=O)[C@H](CCC(=O)O)NC(=O)[C@@H](NC(=O)[C@H](CCCCN)NC(=O)[C@H](CCCCN)NC(=O)[C@H](CC(N)=O)NC(=O)[C@@H](NC(=O)[C@H](CCC(=O)O)NC(=O)[C@H](CCC(=O)O)NC(=O)[C@@H](NC(=O)[C@H](CCCCN)NC(=O)[C@H](CCCCN)NC(=O)[C@H](CC(=O)O)NC(=O)[C@H](Cc1ccccc1)NC(=O)[C@H](CCC(=O)O)NC(=O)[C@H](CC(=O)O)NC(=O)[C@H](CO)NC(C)=O)[C@@H](C)CC)C(C)C)[C@@H](C)CC)C(=O)N[C@@H](CCC(=O)O)C(=O)N[C@@H](CCC(=O)O)C(=O)N[C@@H](CO)C(=O)N[C@@H](CC(=O)O)C(=O)N[C@@H](CCCCN)C(=O)N[C@@H](CCCCN)C(=O)N[C@@H](CC(C)C)C(=O)NCC(=O)N[C@@H](CO)C(=O)NCC(=O)N[C@@H](CO)C(=O)NCC(=O)N[C@@H](CCCCNC(=O)CCC(=O)O[C@H]1CC[C@@]2(C)C(=CC[C@H]3[C@@H]4CC[C@H]([C@H](C)CCCC(C)C)[C@@]4(C)CC[C@@H]32)C1)C(N)=O [Compound 20] (Ac-SDEFDKKIEEVNKKIEESLKKIEESDKKLGSGSGK(Succinyl(4-O-cholesteryl))-NH2) | 8928 | significantly reduce the viral titer in lung tissue
Ac-WDEFDASISQVNEKINQSLEEIRKSDELLHNVNAGLGSGSGK(Succinyl(4-O-cholesteryl))-NH2 [Compound 27] | 9458 | significantly reduce the viral titer in lung tissue
CC[C@H](C)[C@H](NC(=O)[C@H](CCCCN)NC(=O)[C@H](CCCCN)NC(=O)[C@H](CC(C)C)NC(=O)[C@H](CO)NC(=O)[C@H](CCC(=O)O)NC(=O)[C@H](CCC(=O)O)NC(=O)[C@@H](NC(=O)[C@H](CCCCN)NC(=O)[C@H](CCCCN)NC(=O)[C@H](CC(N)=O)NC(=O)[C@@H](NC(=O)[C@H](CCC(=O)O)NC(=O)[C@H](CCC(=O)O)NC(=O)[C@@H](NC(=O)[C@H](CCCCN)NC(=O)[C@H](CCCCN)NC(=O)[C@H](CC(=O)O)NC(=O)[C@H](Cc1ccccc1)NC(=O)[C@H](CCC(=O)O)NC(=O)[C@H](CC(=O)O)NC(=O)[C@H](Cc1c[nH]c2ccccc12)NC(C)=O)[C@@H](C)CC)C(C)C)[C@@H](C)CC)C(=O)N[C@@H](CCC(=O)O)C(=O)N[C@@H](CCC(=O)O)C(=O)N[C@@H](CO)C(=O)N[C@@H](CC(=O)O)C(=O)N[C@@H](CCCCN)C(=O)N[C@@H](CCCCN)C(=O)N[C@@H](CC(C)C)C(=O)N[C@@H](CCC(=O)O)C(=O)N[C@@H](C)C(=O)N[C@@H](C)C(=O)N[C@@H](C)C(=O)N[C@@H](CCCCN)C(=O)N[C@@H](CCCCNC(=O)CCC(=O)O[C@H]1CC[C@@]2(C)C(=CC[C@H]3[C@@H]4CC[C@H]([C@H](C)CCCC(C)C)[C@@]4(C)CC[C@@H]32)C1)C(N)=O [Compound 13] (Ac-WDEFDKKIEEVNKKIEESLKKIEESDKKLEAAAKK(Succinyl(4-O-cholesteryl))-NH2) | 5380 | significantly reduce the viral titer in lung tissue
CC[C@H](C)[C@H](NC(=O)[C@H](CCCCN)NC(=O)[C@H](CCCCN)NC(=O)[C@H](CC(C)C)NC(=O)[C@H](CO)NC(=O)[C@H](CCC(=O)O)NC(=O)[C@H](CCC(=O)O)NC(=O)[C@@H](NC(=O)[C@H](CCCCN)NC(=O)[C@H](CCCCN)NC(=O)[C@H](CC(N)=O)NC(=O)[C@@H](NC(=O)[C@H](CCC(=O)O)NC(=O)[C@H](CCC(=O)O)NC(=O)[C@@H](NC(=O)[C@H](CCCCN)NC(=O)[C@H](CCCCN)NC(=O)[C@H](CC(=O)O)NC(=O)[C@H](Cc1ccccc1)NC(=O)[C@H](CCC(=O)O)NC(=O)[C@H](CC(=O)O)NC(=O)[C@H](Cc1c[nH]c2ccccc12)NC(C)=O)[C@@H](C)CC)C(C)C)[C@@H](C)CC)C(=O)N[C@@H](CCC(=O)O)C(=O)N[C@@H](CCC(=O)O)C(=O)N[C@@H](CO)C(=O)N[C@@H](CC(=O)O)C(=O)N[C@@H](CCCCN)C(=O)N[C@@H](CCCCN)C(=O)N[C@@H](CC(C)C)C(=O)N[C@@H](CCC(=O)O)C(=O)N[C@@H](CCC(=O)O)C(=O)N[C@H](C(=O)N[C@@H](CC(N)=O)C(=O)N[C@@H](C)C(=O)N[C@@H](CCC(=O)O)C(=O)N[C@@H](C)C(=O)N[C@@H](C)C(=O)N[C@@H](C)C(=O)N[C@@H](CCCCN)C(=O)N[C@@H](CCCCNC(=O)CCC(=O)O[C@H]1CC[C@@]2(C)C(=CC[C@H]3[C@@H]4CC[C@H]([C@H](C)CCCC(C)C)[C@@]4(C)CC[C@@H]32)C1)C(N)=O)C(C)C [Compound 40] (Ac-WDEFDKKIEEVNKKIEESLKKIEESDKKLEEVNAEAAAKK(Succinyl(4-O-cholesteryl))-NH2) | 5678 | significantly reduce the viral titer in lung tissue
CC[C@H](C)[C@H](NC(=O)[C@H](CO)NC(=O)[C@H](C)NC(=O)[C@H](CC(=O)O)NC(=O)[C@H](Cc1ccccc1)NC(=O)[C@H](CCC(=O)O)NC(=O)[C@H](CC(=O)O)NC(C)=O)C(=O)N[C@@H](CO)C(=O)N[C@@H](CCC(N)=O)C(=O)N[C@H](C(=O)N[C@@H](CC(N)=O)C(=O)N[C@@H](CCC(=O)O)C(=O)N[C@@H](CCCCN)C(=O)N[C@H](C(=O)N[C@@H](CC(N)=O)C(=O)N[C@@H](CCC(N)=O)C(=O)N[C@@H](CO)C(=O)N[C@@H](CC(C)C)C(=O)N[C@@H](CCC(=O)O)C(=O)N[C@@H](CCC(=O)O)C(=O)N[C@H](C(=O)N[C@@H](CCCNC(=N)N)C(=O)N[C@@H](CCCCN)C(=O)N[C@@H](CO)C(=O)N[C@@H](CC(=O)O)C(=O)N[C@@H](CCC(=O)O)C(=O)N[C@@H](CC(C)C)C(=O)N[C@@H](CC(C)C)C(=O)N[C@@H](Cc1c[nH]cn1)C(=O)N[C@@H](CC(N)=O)C(=O)N[C@@H](CCC(=O)O)C(=O)N[C@@H](C)C(=O)N[C@@H](C)C(=O)N[C@@H](C)C(=O)N[C@@H](CCCCN)C(=O)N[C@@H](CCCCNC(=O)CCC(=O)O[C@H]1CC[C@@]2(C)C(=CC[C@H]3[C@@H]4CC[C@H]([C@H](C)CCCC(C)C)[C@@]4(C)CC[C@@H]32)C1)C(N)=O)[C@@H](C)CC)[C@@H](C)CC)C(C)C [Compound 28] (Ac-DEFDASISQVNEKINQSLEEIRKSDELLHNEAAAKK(Succinyl(4-O-cholesteryl))-NH2) | 8425 | significantly reduce the viral titer in lung tissue
